Laboratory results as given in patent publication US11220479B2, “Glucosylceramide synthase inhibitors and therapeutic methods using the same” (THE REGENTS OF THE UNIVERSITY OF MICHIGAN, priority 2019, dated 2022).
Where a name gives a salt, the structure may show the parent alone.

What was measured:
[1] = biological target: T1, glucosylceramide synthase (GCS) (Canis lupus familiaris, UniProt A0A8I3MXG6); assay: GCS inhibition in MDCKII cells (inhibition of GlcCer production in whole wild-type MDCKII cells); assay type: cell-based; details: inhibition of GlcCer production in whole wild-type MDCKII cells, 24 hours; read-out: MDCK IC50
T1 construct: endogenous in cells; host or cells: parental (wild-type) MDCKII cells
T1 sequence (A0A8I3MXG6 1-394): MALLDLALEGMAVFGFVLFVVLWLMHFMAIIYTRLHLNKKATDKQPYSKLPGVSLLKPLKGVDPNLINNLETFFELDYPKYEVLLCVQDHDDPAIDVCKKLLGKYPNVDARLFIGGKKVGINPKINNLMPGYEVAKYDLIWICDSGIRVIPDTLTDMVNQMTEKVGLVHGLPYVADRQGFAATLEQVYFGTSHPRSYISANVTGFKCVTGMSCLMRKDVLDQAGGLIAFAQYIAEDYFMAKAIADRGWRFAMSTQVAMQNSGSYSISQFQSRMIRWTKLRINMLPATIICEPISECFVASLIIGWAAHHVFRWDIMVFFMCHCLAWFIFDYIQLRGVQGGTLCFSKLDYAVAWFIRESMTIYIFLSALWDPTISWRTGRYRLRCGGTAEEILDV

[2] = Half-life when incubated with mouse liver microsomes (MLM); assay type: in vitro ADME; details: half-life when incubated with mouse liver microsomes; read-out: MLM T½
Method: (§1) ^a Inhibition of GlcCer production in whole wild-type MDCKII cells. ^bHalf-life when incubated with mouse liver microsomes. ^cAreas under the drug concentration curve after single IP dose in mice (10 mg/kg). ^dReduction in brain levels of glucosylceramide in CBE mice after 14 days of qd dosing with test drug administered IP. NC=no change.

[3] = IP PK: areas under the drug concentration curve after single IP dose in mice; assay type: in vivo; details: for IP PK Brain AUC / AUC: mice, single IP dose 10 mg/kg; for AUC: mouse, plasma
[4] = system: brain glucosylceramide (GCS inhibition); assay: Reduction of brain glucosylceramide in CBE mice; assay type: in vivo; details: qd, 14 days
Method: Reduction of Brain Glucosylceramide and Glucosylsphingosine in CBE Mice
The reduction by inhibitors of GCS in brain glucosylceramide and glucosylsphingosine content was determined by the use of mice with Gba 1 mutant alleles, termed D409V/null. These are knock-in mice with a Gba 1 point mutation encoding Valine (V) 409 for the wild type (WT) Aspartate (D) on one missense allele and a null heteroallele [D409V/null (9V/null)]. The D409V/null and WT littermates were of mixed gender and mixed, but matched, genetic backgrounds of C57BL/129Sv/FVB. (Xu Y H, Sun Y, Barnes S, Grabowski G A (2010) Comparative therapeutic effects of velaglucerase alfa and imiglucerase in a Gaucher disease mouse model. PLoS One 5: e10750.) Mice were treated with intraperitoneal conduritol B epoxide (CBE), an irreversible inhibitor of beta-glucocerebrosidase (25 mg/kg/day) for all groups beginning at post-partum day 15. Mice were concurrently treated with GCS inhibitor or vehicle control for 14 days. The mice were sacrificed 2 hours following the last injection and tissues including brain, liver, spleen, kidney and lung were analyzed for glucosylceramide and glucosylsphingosine by mass spectrometry.
(§2) Mouse Tissue Lipid Analysis
(§3) Lipid extractions of liver, kidney, and brain were performed as previously described (7). Briefly, frozen liver (about 0.5 g), two kidneys (about 0.3 g) and whole brain (about 0.4 g) were individually homogenized in sucrose buffer (250 mM sucrose, pH 7.4, 10 mM HEPES and 1 mM EDTA), at 0.2 g tissue/1 mL of sucrose buffer, with a Tri-R homogenizer. Each 0.8 mL of homogenate was mixed with 2 mL of methanol and 1 mL of chloroform, bath sonicated for 1 min and incubated at room temperature for 1 h. Tissue debris were removed by centrifugation at 2,400× gravity for 30 min. The pellets were re-extracted by mixing with 1 mL of methanol, 0.5 mL of chloroform and 0.4 mL of 0.9% NaCl (chloroform/methanol/0.9% NaCl, 1:2:0.8), incubated at room temperature for 1 h and centrifuged at 2,400× gravity for another 30 min. Two extracts were combined and mixed with 4.5 mL of chloroform and 1.2 mL of 0.9% NaCl (chloroform/methanol/0.9% NaCl, 2:1:0.8). After centrifugation at 800× gravity for 5 min, lower layer was washed with 3 mL of methanol and 2.4 mL of 0.9% NaCl. Second washing was carried with 3 mL of methanol, 2 mL of water and 0.4 mL of 0.9% NaCl followed by a 5 min centrifugation at 800× gravity. The resultant lower phase was collected and dried under a stream of N2 gas.
The analysis of neutral glycosphingolipids from mouse liver, kidney, and brain was processed after alkaline methanolysis. […] lipids were incubated with 2 mL of chloroform and 1 ml of 0.21N NaOH in methanol for 2 h (kidney) or 7.5 h (liver and brain) at RT. The lipid extract was normalized to 0.5 μmol of total phospholipid phosphate (liver and kidney) or 2 μmol of total phospholipid phosphate (brain) for high performance thin layer chromatography analysis. After alkaline methanolysis, the brain lipids were passed through a silica gel column (7). Borate-impregnated thin layer chromatography plates were developed in a two solvent system. Plates were first developed in chloroform/methanol (98:2, v/v). The plates loaded with kidney and liver lipids were then developed in chloroform/methanol/water (64:24:4, v/v/v), and brain lipids were further separated in chloroform/methanol/water (60:30:6, v/v/v). GlcCer levels were quantified by comparison to known standards.
as §1

[5] = system: brain glucosylceramide content; assay: Brain glucosylceramide content after intraperitoneal administration to mice for 3 days; assay type: in vivo; details: intraperitoneal administration for 3 days
Method: The compounds were screened for inhibition of GCS in broken cell and whole cell assays, and for MDR1 substrate recognition.
as §2
as §3, with “Second washing was carried with 3 mL of methanol, 2 mL of water and 0.4 mL of 0.9% NaCl followed by a 5 min centrifugation at 800× gravity. The resultant lower phase was collected and dried under a stream of N2 gas.” left out
The analysis of neutral glycosphingolipids from mouse liver, kidney, and brain was processed after alkaline methanolysis. […] GlcCer levels were quantified by comparison to known standards.

| IC50 [1] [nM] | half-life [2] [min] | IP PK Brain AUC [3] [ng·h/mL] | AUC [3] [ng·h/mL] | drug exposure in the brain versus compound lacking the 3-chloro substituent [3] | Structure (SMILES) | Reduction in brain GlcCer in CBE mice ([4]; 26 μmol/kg/day IP) [%] | decrease in brain glucosylceramide content [5] | Reduction in brain GlcCer in CBE mice ([4]; 100 μmol/kg/day IP) [%] | Reduction in brain GlcCer in CBE mice ([4]; 36 μmol/kg/day IP) [%] |
| --- | --- | --- | --- | --- | --- | --- | --- | --- | --- |
| 0.14 | 24 | 293 | 1020 |  | O=C(CC1Cc2ccccc2C1)N[C@H](CN1CCCC1)[C@H](O)c1ccc(OC2CC2)c(Cl)c1 [Example 4, N-((1R,2R)-1-(3-chloro-4-cyclopropoxyphenyl)-1-hydroxy-3-(pyrrolidin-1-yl)propan-2-yl)-2-(2,3-dihydro-1H-inden-2-yl)acetamide] | 33 |  |  |  |
|  |  |  |  |  | CCCCCCCC(=O)N[C@H](CN1CCCC1)[C@H](O)c1ccc2c(c1)OCCO2 [eliglustat tartrate, N-((1R,2R)-1-(2,3-dihydrobenzo-[b][1,4]dioxin-6-yl)-1-hydroxy-3-(pyrrolidin-1-yl)propan-2-yl)octanamide] |  | not seen |  |  |
| 0.74 | 40 | 366 | 849 | improved | CC1(Oc2ccc([C@@H](O)[C@@H](CN3CCCC3)NC(=O)CC3Cc4ccccc4C3)cc2Cl)COC1 [Example 5, N-((1R,2R)-1-(3-chloro-4-((3-methyloxetan-3-yl)oxy)phenyl)-1-hydroxy-3-(pyrrolidin-1-yl)propan-2-yl)-2-(2,3-dihydro-1H-inden-2-yl)acetamide] |  |  | 64 |  |
| 0.32 | 29 | 210 | 370 |  | O=C(N[C@H](CN1CCCC1)[C@H](O)c1ccc(OC2CC2)c(Cl)c1)OC1Cc2ccccc2C1 [Example 12, 2,3-dihydro-1H-inden-2-yl ((1R,2R)-1-(3-chloro-4-cyclopropoxyphenyl)-1-hydroxy-3-(pyrrolidin-1-yl)propan-2-yl)carbamate] | 32 |  |  |  |
| 0.8 | 50 | 869 | 2180 |  | O=C(CC1Cc2ccc(F)cc2C1)N[C@H](CN1CCCC1)[C@H](O)c1cccc(Cl)c1 (stereo partly drawn) [Example 9, N-((1R,2R)-1-(3-chlorophenyl)-1-hydroxy-3-(pyrrolidin-1-yl)propan-2-yl)-2-(5-fluoro-2,3-dihydro-1H-inden-2-yl)acetamide] | 43 |  |  |  |
| 1 | 18 | 1109 | 1540 |  | O=C(CC1Cc2ccccc2C1)N[C@H](CN1CCCC1)[C@H](O)c1cccc(Cl)c1 [Example 1, N-((1R,2R)-1-(3-chlorophenyl)-1-hydroxy-3-(pyrrolidin-1-yl)propan-2-yl)-2-(2,3-dihydro-1H-inden-2-yl)acetamide] |  |  |  | 23 |
| 0.061 | 44 | 129 | 590 | improved | CC1(C)COc2cc([C@@H](O)[C@@H](CN3CCCC3)NC(=O)CC3Cc4ccccc4C3)cc(Cl)c2O1 [Example 7, N-((1R,2R)-1-(8-chloro-2,2-dimethyl-2,3-dihydrobenzo[b][1,4]dioxin-6-yl)-1-hydroxy-3-(pyrrolidin-1-yl)propan-2-yl)-2-(2,3-dihydro-1H-inden-2-yl)acetamide] | 49 |  |  |  |

| Structure (SMILES) | IC50 [1] [nM] | half-life [2] [min] | IP PK Brain AUC [3] [ng·h/mL] | AUC [3] [ng·h/mL] | drug exposure in the brain versus compound lacking the 3-chloro substituent [3] | Reduction in brain GlcCer in CBE mice ([4]; 26 μmol/kg/day IP) [%] | decrease in brain glucosylceramide content [5] | Reduction in brain GlcCer in CBE mice ([4]; 100 μmol/kg/day IP) [%] | Reduction in brain GlcCer in CBE mice ([4]; 36 μmol/kg/day IP) [%] |
| --- | --- | --- | --- | --- | --- | --- | --- | --- | --- |
| CC(C)(C)Oc1ccc([C@@H](O)[C@@H](CN2CCCC2)NC(=O)CC2Cc3ccccc3C2)cc1Cl [Example 2, N-((1R,2R)-1-(4-(tert-butoxy)-3-chlorophenyl)-1-hydroxy-3-(pyrrolidin-1-yl)propan-2-yl)-2-(2,3-dihydro-1H-inden-2-yl)acetamide] | 0.081 | 170 | 1316 | 1990 |  | 21 |  |  |  |
